In publication PMC5711939, “The rumen microbiome: an underexplored resource for novel antimicrobial discovery” (NPJ Biofilms and Microbiomes, 2017):
In brackets after ≈: the same amount, converted by molar mass. Where two headings read alike, the source gives them in different places. Ends that are not written are not given here.

Experiments:
[1] = system: C. coli
Experimental: (§1) Peptides dissolved in sterile distilled water and comparator antibiotics dissolved in the appropriate solvents[38] were added to sterile U-bottom polypropylene 96-well microplates at desired concentrations.

[2] = system: Ent. faecalis JH2-2; experiment: microbe, parasite or virus in culture
Experimental: as §1

[3] = system: Sal. typhimurium SL1344; experiment: microbe, parasite or virus in culture
Experimental: as §1

[4] = system: K. pneumoniae; experiment: microbe, parasite or virus in culture
Experimental: as §1

[5] = system: S. aureus; experiment: microbe, parasite or virus in culture
Experimental: as §1

[6] = system: List. monocytogenes NCTC 11994; experiment: microbe, parasite or virus in culture
Experimental: as §1

[7] = system: C. jejuni; experiment: microbe, parasite or virus in culture
Experimental: as §1

[8] = system: E. coli K12; experiment: MIC, broth microdilution; type: cell-based, Escherichia coli; conditions: strain K12, cation adjusted MHB, 18–24 h
Experimental: as §1

[9] = system: E. coli K12; experiment: Time kill kinetics; type: cell-based, Escherichia coli; conditions: at 10 min
Experimental: Assessment of the bactericidal activity of peptides and comparator antibiotics was performed as previously described[39] using exponential-phase cultures of pathogens grown in MHB ([…]). Peptides were added at concentrations 3 times their MIC values. Experiments were performed in quadruplicates, and CFU/ml was calculated at different time points after over overnight incubation.

[10] = system: HUVEC and HepG2 cells; conditions: HUVEC and HepG2 cells (cell line not given)
Experimental: Cytotoxic activity of the identified peptides was determined using HUVEC and HEPG2 cells as described previously.[41],[42] […] Significant responses were defined when observed cell growth was ≤50% and tube length was ≤70% using the proliferation and tube formation assays respectively. Permeabilization of eukaryotic membrane by Lynronne-1, Lynronne-2 and Lynronne-3 was also investigated using HepG2 cells as described previously.[43]

[11] = system: S. aureus MRSA ATCC 33591; experiment: Neutropenic mouse MRSA thigh infection model; type: in vivo, Staphylococcus aureus; conditions: neutropenic male ICR mice; 10 mg/kg IV administered twice; significant (P < 0.001)
Experimental: In the thigh infection model, using neutropenic mice,[25] groups of five male ICR mice weighing 22 ± 2 g were inoculated intramuscularly (IM) with S. aureus MRSA, ATCC 33591 (1.57 × 10^5 CFU/mouse (0.1 ml/thigh)) in the right thigh. Lynronne-1, Lynronne-2 and Lynronne-3 at 10 mg/kg were intravenously (IV) administered once 2 h post infection or twice 2 and 8 h post-infection. The reference substance, vancomycin, was also intravenously injected 2 and 8 h post-infection at 10 and 30 mg/kg. Test animals were sacrificed 26 h after inoculation and the infected thighs were excised and the bacterial burden (CFU/gram) was determined.

[12] = strain RN4220, Sensitive, cation adjusted MHB, 18–24 h

Compound	MIC [1] [µg/mL]	MIC [2] [µg/mL]	MIC [3] [µg/mL]	MIC [5, 12] [µg/mL]	MIC ([6]; NCTC 11994) [µg/mL]	MIC [7] [µg/mL]	MIC [8] [µg/mL]	further results
RSITRPVLVRRRWRVRPVF-NH2 [P10]	>128	512	64	256	512	>128	256	MIC [4]: >128 µg/mL; MIC [5]: >128 µg/mL
Polymyxin B	–	–	–	–	–	–	–	Bactericidal activity (reduction in viable count) [9]: > 4 log10 CFU/ml
KFVRLKIYCRDKNKGRGISF-NH2 [P15s]	128	128	128	–	128	128	64	–
CN[C@@H]1C[C@H]2O[C@@](C)([C@@H]1OC)n1c3ccccc3c3c4c(c5c6ccccc6n2c5c31)C(=O)NC4 [Staurosporine, reference compound]	–	–	–	–	–	–	–	50% lethal concentration (LC50) [10]: 0.014 µg/mL
CN[C@H](CC(C)C)C(=O)N[C@H]1C(=O)N[C@@H](CC(N)=O)C(=O)N[C@H]2C(=O)N[C@H]3C(=O)N[C@H](C(=O)N[C@H](C(=O)O)c4cc(O)cc(O)c4-c4cc3ccc4O)[C@H](O)c3ccc(c(Cl)c3)Oc3cc2cc(c3O[C@@H]2O[C@H](CO)[C@@H](O)[C@H](O)[C@H]2O[C@H]2C[C@](C)(N)[C@H](O)[C@H](C)O2)Oc2ccc(cc2Cl)[C@H]1O [Van, Vancomycin, reference compound]	–	–	–	–	–	–	–	Reduction in colony counts [11]: < 2 log; MIC ([2]; Enterococcus faecalis, JH22): 64 µg/mL (≈ 44.2 µM); MIC ([3]; Salmonella enterica, TYPHIMURIUM): 256 µg/mL (≈ 177 µM); MIC ([5]; Staphylococcus aureus): 1 µg/mL (≈ 0.69 µM); MIC ([5]; Staphylococcus aureus, ATCC33591 / MRSA): 2 µg/mL (≈ 1.38 µM); MIC ([5]; Staphylococcus aureus, BAA1717 / MRSA / USA300): 2 µg/mL (≈ 1.38 µM); MIC ([5]; Staphylococcus aureus, MRSA): 2 µg/mL (≈ 1.38 µM); MIC ([6]; Listeria monocytogenes, NCTC11994): 64 µg/mL (≈ 44.2 µM); MIC ([8]; Escherichia coli, read-out: MIC): 128 µg/mL (≈ 88.3 µM)
VLHTGYRKFLHRSKRFFHLR-NH2 [P4]	>128	64	32	–	64	>128	64	–
AWRWKAFRNCWRVRSSSL-NH2 [P8]	>128	64	32	64	64	>128	64	–
TMSLRFWRWKVR-NH2 [P5]	128	64	64	64	64	128	64	–
